In data set [1] the test system is KPC cells. Put plainly: ICD marker expression, flow cytometry, KPC cells (Experimental Example 13-2). In kind it is cell-based, mouse. To be noted: 24 h, Fig. 21; for HSP70 level / HSP90 level / calreticulin level: 1 μg/mL or 5 μg/mL. A general note: Flow cytometry measures light scatter and fluorescence of single cells or particles in a stream.
In data set [2] the test system is GL261 cells. Put plainly: ICD marker expression on cell surface, flow cytometry, GL261 cells. In kind it is cell-based, mouse. To be noted: 24 h; negative control; Fig. 8G.
Data set [3] relates to GL261 cells. Put plainly: Cytotoxic activity (IC50), GL261 cells (Experimental Example 6).
The test system of data set [4] is PD-L1. Put plainly: PD-L1 expression in CT2A tumors, flow cytometry (Experimental Example 10). The class given is in vivo, mouse. To be noted: 8 days after single tail vein injection, 6 mg/kg Epi equivalent; Fig. 16.
In data set [5] the test system is CT2A cells. The data set is described as follows: Cytotoxic activity (IC50), CT2A cells (Experimental Example 6). The conditions noted are these: PTEN-negative; 48 h; Fig. 8F. In kind it is cell-based, mouse.
For data set [6], the system named is GL261-luc tumor. Put plainly: Orthotopic GL261-luc tumor in wild type mice (Experimental Example 7-1). The conditions noted are these: wild type C57/BL6; 5 mg/kg Epi equivalent. In kind it is in vivo, mouse.
Data set [7] has as its system mouse glioblastoma (GBM) cells GL261. Put plainly: in vitro cytotoxicity assay (Experimental Example 3). To be noted: 3 h exposure, 48 h incubation; Fig. 3. The class given is cell-based.
For data set [8], the system named is various cancer cells (MCA205, AB12, GL261, CT2A, LL2, C26). The data set is described as follows: IC50 against various cancer cells (Experimental Example 11-1). The class given is cell-based.
The subject of data set [9] is fibrosarcoma cell carcinoma line (MCA205, Sarcoma180, NIH3T3, HT1080). The data set is described as follows: IC50 against fibrosarcoma cell lines (Experimental Example 12-1). The class given is cell-based.
Data set [10] deals with GL261-luc tumor. The data set is described as follows: Orthotopic GL261-luc tumor in nude mice (Experimental Example 7-1). The conditions noted are these: nude BALB/c; 5 mg/kg Epi equivalent. In kind it is in vivo, mouse.
Data set [11] relates to mouse pancreatic cancer cells KPC. The data set is described as follows: IC50 for mouse pancreatic cancer cells KPC (Experimental Example 13-1). In kind it is cell-based. The conditions noted are these: Pancreatic cancer cell.

Where a name gives a salt, the structure may show the parent alone.

What is called IC50 is the point on the concentration scale where inhibition reaches its midpoint.

Regarding `CCc1c2c(nc3ccc(OC(=O)N4CCC(N5CCCCC5)CC4)cc13)-c1cc3c(c(=O)n1C2)COC(=O)[C@]3(O)CC` [irinotecan], the ICD marker level result in data set [1] (any concentration) is reported as “did not significantly increase the marker at any concentration”.

For `[NH2][Pt]([NH2])([Cl])[Cl]` [CDDP, Cisplatin], the ICD marker level entry in data set [2] is recorded as “did not significantly increase the marker”.

Take `COc1cccc2c1C(=O)c1c(O)c3c(c(O)c1C2=O)C[C@@](O)(C(=O)CO)C[C@@H]3O[C@H]1C[C@H](N)[C@@H](O)[C@H](C)O1` [Epi, Epirubicin hydrochloride]: the IC50 in [3] (Mus musculus, GL261, 48 h) is less than 1 µg/mL; in data set [8], not above 1 µg/mL; in data set [9] it was not above 2 µg/mL. Moreover, the cytotoxic activity result in [3] (PTEN-positive, 48 h, Fig. 8E) is recorded as “high cytotoxic activity”; in data set [5], “high activity against PTEN-negative CT2A cells, comparable to the activity against GL261 cells”. Further, the “expression level of PD-L1 in tumor cells” value in [4] is recorded as “no such reduction in expression levels occurred”. Further, in data set [6], the “tumor growth rate / tumor-derived luminescence” value is recorded as “the tumor growth rate was not suppressed”. For the same molecule, in data set [1], the HSP70 level result is given as “significantly increased”. In addition, the HSP90 level entry in data set [1] was “significantly increased”. Also, the calreticulin level entry in data set [1] is reported as “significantly increased”. Besides, the in vitro cytotoxicity result in data set [7] is “high in vitro cytotoxicity”. For the same molecule, the tumor growth rate entry in data set [10] was “the tumor growth rate was not suppressed”.

Take `COc1cccc2c1C(=O)c1c(O)c3c(c(O)c1C2=O)C[C@@](O)(C(=O)CO)C[C@@H]3O[C@H]1C[C@H](N)[C@H](O)[C@H](C)O1` [DOX, doxorubicin hydrochloride]: in data set [1], the HSP70 level entry is recorded as “significantly increased”, the HSP90 level entry is reported as “significantly increased” and the calreticulin level entry is “significantly increased”. In data set [11], this molecule yielded a half-maximal inhibitory concentration (IC50) not above 2 µg/mL.

Values taken from WO2020158863A1, “Combined drug of anthracycline compound-containing micelle preparation with immunostimulant” (priority 2019, dated 2020).
